Laboratory results taken from publication PMC4446823, “Inhibition of RORγt activity and Th17 differentiation by a set of novel compounds” (BMC Immunology, 2015).
Like-named read-outs stand apart in the source and are kept apart here.

Legend:
RORγt [1] = target: T1, RORγt (Homo sapiens, UniProt P51449); assay: Gal4/RORγt-LBD luciferase reporter assay in RORγt-LBD+ Jurkat stable cells; assay type: cell-based; conditions: RORγt-LBD+ Jurkat cells, 6 h
T1 construct: expressed in transfected cells
T1 sequence (P51449 269-508 limits assumed): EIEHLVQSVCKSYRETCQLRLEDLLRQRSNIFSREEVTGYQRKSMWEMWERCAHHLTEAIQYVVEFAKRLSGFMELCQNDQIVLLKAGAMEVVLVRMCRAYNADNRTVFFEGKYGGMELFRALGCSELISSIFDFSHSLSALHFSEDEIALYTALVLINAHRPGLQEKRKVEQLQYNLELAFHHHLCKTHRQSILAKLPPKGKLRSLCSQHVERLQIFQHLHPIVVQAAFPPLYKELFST
Text: (§1) The pGL4.31 (luc2P/GAL4UAS/Hygro) and pBIND vectors were obtained from Promega (Madison, WI, USA). An IRES-GFP sequence was first cloned into the pBIND vector. Human RORγt was then amplified using cDNA isolated from human peripheral blood mononuclear cells (PBMCs) (provided by Dr. Hui Zhang) and inserted into the reconstructed pBIND-IRES-GFP vector to generate a Gal4–RORγt-LBD-IRES-GFP fusion sequence. The primers that used to construct the pBIND- Gal4–RORγt-LBD-IRES-GFP plasmid are as follows: RORγt-LBD forward 5′- […]-3′,reverse5′- […] -3′.
A similar procedure was used to generate the Jurkat RORγt -LBD reporter cell line. For this, Jurkat cells (1 × 10^7) were transfected with pGL4.31 reporter plasmid (20 μg) by electroporation (Lonza, Basel, Switzerland) according to the manufacturer’s instructions. The transfected Jurkat cells were selected in RPMI 1640 medium containing 200 μg/mL hygromycin B prior to a second transfection. Stable Jurkat cotransfectants were then sorted based on GFP expression, and yielded a GFP^+ purity >96 % as determined by flow cytometry.
RORγt-LBD^+-Jurkat (2 × 10^4) stable cells were seeded into 96-well round-bottom plates (Corning Inc, Corning, NY) and incubated in RPMI1640 complete medium overnight. Then, Screened compounds (Enamine, Monmouth Junction, NJ) were added to the wells using a Tecan Freedom EVO 150 (Tecan, Männedorf, Switzerland) to a final concentration of 50 μM. Cells were treated with DMSO or 100 nM PMA (Sigma-Aldrich, St. Louis, MO) only for use as negative and positive controls, respectively. After a 6 h treatment period, cells were lysed and assayed for luciferase activity (Promega) following the manufacturer’s instructions.
RORγt-LBD^+-Jurkat cells were seeded into 96-well round-bottom plates (2 × 10^4) and cultured overnight prior to incubation with the screening compounds at 5-fold gradient final concentrations ranging from 5 μM to 8 nM. Cells were lysed 6 h later and assayed for luciferase activity (Promega) using the manufacturer’s instructions. Additionally, the results from the high-throughput screening at 50 μM concentration of candidates were also applied in the calculation of the EC50. The EC50 values were determined by plotting the logarithm of compound concentration versus relative luciferase activity to determine the half-maximal effective concentration (EC50).

RORγt [2] = target: T1, RORγt; assay: Gal4/RORγt-LBD luciferase reporter assay in RORγt-LBD+ 293 T stable cells; assay type: cell-based; conditions: RORγt-LBD+ 293 T cells, 5 μM, 6 h
Text: as §1
The pGL4.31 reporter plasmid (4 μg) was transfected into 293 T cells (1 × 10^6) with Lipofectamine™ 2000 (Invitrogen) according to manufacturer instructions. The transfected cells were then selected in a medium containing 100 μg/mL hygromycin B (Roche, San Francisco, CA, USA) for 3 weeks to obtain a cell population that expressed the pGL4.31 reporter gene. Then, the stable cells were transfected with pBIND-RORγt-LBD-IRES-GFP plasmid (4 μg). The cotransfectants were sorted by green fluorescent protein (GFP) expression, which yielded a RORγt-LBD^+ 293Tstable reporter cell line with >96 % purity as determined by flow cytometry.
RORγt-LBD^+-293 T (1x10^4) stable cells wereseeded into 96-well plates (Corning Inc., Corning, NY)and incubated in DMEM complete medium overnight. Then the candidates were added with a final concentration of 5 μM. […]

wild type Jurkat cells = assay: Jurkat cell viability, MTT assay; assay type: cell-based, human; conditions: 48 h; for reduction of Jurkat cell viability over vehicle control: 5 μM (highest concentration)
Protocol: (§2) Jurkat cell viability after culturing in the presence of the screened compounds was assessed by MTT assay. In brief, wild type Jurkat cells were seeded (2 × 10^4) and incubated with the compounds in 5-fold gradient dilutions. MTT (dimethylthiazolyl-2-5-diphenyltetrazolium bromide) dye solution (Sigma, St. Louis, MO, USA) was added 48 h later and incubated at 37 °C for 4 h, MTT was reduced by live cells into a colored formazan product. After centrifugation at 1500 rpm for 5 min, the supernatant was discarded and 100 μL DMSO was added to the plate, which was gently shaken for 10 min to dissolve the formazan product. Absorbance at 570 nm wavelength was recorded using Thermo Scientific Multiskan FC (Thermo Scientific, Waltham, MA, USA). Each treatment was repeated in quadruplicate. Cell viabilities were defined relative to control cells treated only with DMSO, with results used as evaluation of cytotoxicity of candidates. The half-maximal cytotoxic concentration (CC50) for each compound was calculated from the dose–response curves with the aid of GraphPad Prism software 5.0 (GraphPad Software, San Diego, CA).

[3] = Jurkat cell viability, MTT assay; assay type: cell-based, human; conditions: human, wild-type Jurkat cells, highest concentration 5 μM
Protocol: as §2

IL-17A secretion = IL-17A secretion by ELISA in culture supernatant under Th17-polarizing conditions; assay type: cell-based; conditions: mouse CD4+ T cells, compound 5 μM, 5 days
Protocol: (§3) CD4^+CD25^− T cells were isolated from spleens of 8–12-week-old C57BL/6 mice as follows: single-cell suspensions were made by crushing the spleen through a cell strainer, and red blood cells (RBCs) were lysed with RBC lysis buffer. CD4^+ T cells were then purified using magnetic-activated cell sorting (MACS) column a CD4^+ T cell isolation kit (Miltenyi Biotec, Bergisch Gladbach, Germany) according to the manufacturer’s protocol.
(§4) Spleen cells (3 × 10^6) were stimulated in 6-well plates with 5 μg/mL plate-bound anti-CD3e antibody (eBioscience, San Diego, USA) and 2 μg/mL soluble anti-CD28 antibody (eBioscience) for 24 h. The activated cells were then collected, and seeded into 96-well round-bottom plates (2 × 10^4) for Th17 differentiation in the presence of 5 ng/mL recombinant human TGF-β (R&D Systems, Minneapolis, MN), 30 ng/mL recombinant mouse IL-6 (R&D Systems, Minneapolis, MN), and either the screening compounds (5 μM final concentration) or DMSO as control. After culturing for 2 days, fresh medium (100 uL/well) containing recombinant human TGF-β, recombinant mouse IL-6, and the previously-introduced screening compounds was added to the cells, which were then cultured for additional 2 days.
The concentration of IL-17A in the splenocyte supernatant after 5 days in culture was determined using an ELISA kit (CUSABIO, Wuhan, China) according to the manufacturer’s protocol.

[4] = system: mouse Th17 cell differentiation; assay: In vitro mouse Th17 cell differentiation, mRNA by quantitative PCR; assay type: cell-based; conditions: 5 μM, Th17-polarizing conditions (TGF-β, IL-6), 4 days, normalized to GAPDH
Protocol: as §3, §4
Total RNA was extracted from splenocytes with TRIzol (Invitrogen) after 5 days in culture. Approximately 1 μg total RNA was added to a 20 μL reaction volume for reverse transcription using the GoScript™ Reverse Transcription System (Promega) according to the manufacturer’s instructions. Synthesized cDNA was then used for real-time quantitative PCR using GoTaq® qPCR Master Mix (Promega). Gene expression of mouse Rorc, Il17a, and Il17f was normalized to that of Gapdh. The following primer sequences were used: Rorc forward 5′-TGTAATGTGG CCTACTCCTGCA-3′, reverse 5′-[…]-3′; Il17a forward 5′- […]-3′, reverse 5′-[…] -3′; Il17f forward 5′-[…]-3′, reverse 5′- […]-3′; Gapdh forward 5′-[…]-3′, reverse 5′-[…]-3′.

[5] = read-out: EC50, inhibition of RORγt activity, Gal4/RORγt-reporter system

| SMILES | EC50 (RORγt [1]; 5 μM to 8 nM, read-out: EC50, relative luciferase activity, Gal4-reporter system) | reduction of RORγt activity in 293 T cells (RORγt [2]) | reduction of Jurkat cell viability over vehicle control (wild type Jurkat cells) | CC50 at 48 h [3] | EC50 (RORγt [1]; [5]) | IL-17A concentration in culture supernatant (IL-17A secretion) | reduction of IL-17A concentration compared with vehicle-treated control cells (IL-17A secretion) | Il17a gene expression compared with vehicle-treated control group [4] | Il17f gene expression compared with vehicle-treated control group [4] | CC50 (wild type Jurkat cells; wild-type Jurkat cells, highest concentration 5 μM) |
| --- | --- | --- | --- | --- | --- | --- | --- | --- | --- | --- |
| CC1Cc2ccccc2N1S(=O)(=O)c1ccc(Cl)c(C(F)(F)F)c1 (centres unmarked) [744267-30-9, 1-[4-chloro-3-(trifluoromethyl)phenyl] sulfonyl-2-methyl-2,3-dihydroindole, reference compound] | 0.723 µM | strongly inhibited | – | – | – | – | – | – | – | – |
| Cc1cc(NC(=O)NC(c2ccc(C(C)C)cc2)c2cccs2)no1 (centres unmarked) [compound 29, 3-(5-methyl-1,2-oxazol-3-yl) - 1-[(4-propan-2-ylphenyl) - thiophen-2-ylmethyl] urea] | – | – | less than 25% | > 5 µM | 2.1 µM | 209 pg/mL | 44% | significantly reduce | significantly reduce | – |
| O=C(c1ccc(C2CCCCC2)cc1)N(CC1CCCO1)C1CCS(=O)(=O)C1 (centres unmarked) [compound 31, 4-cyclohexyl-N-(1,1-dioxothiolan-3-yl) - N-(oxolan-2-ylmethyl) benzamide] | – | – | less than 25% | – | 17.5 µM | 226 pg/mL | 39% | significantly reduce | significantly reduce | – |
| CCc1nnc(NC(=O)C2(S(=O)(=O)c3ccc(C)c(C)c3)CCCC2)s1 [compound 35, 1-(3,4-dimethylphenyl) sulfonyl-N-(5-ethyl-1,3,4-thiadiazol-2-yl) cyclopentane-1-carboxamide] | – | – | less than 25% | – | 28 µM | – | – | significantly reduce | significantly reduce | – |
| CCCc1cc(C(=O)OCC(=O)NC(=O)NC2CCCC2)sc1C [compound 36, 2- Thiophenecarboxylic acid, 5-methyl-4-propyl-,2-[[(cyclopentylamino)carbonyl]amino] - 2-oxoethyl ester] | – | – | about 50% | – | 4.2 µM | 189 pg/mL | 49% | significantly reduce | significantly reduce | > 5 µM |
